We go through two molecules from US11707467B2, “(17-ß)-3-oxoandrost-4-en-17YL tridecanoate compositions and methods of their preparation and use” (Lipocine Inc., priority 2014, dated 2023).

A short description of data set [1]: Pharmacokinetic study: % responders by serum testosterone Cavg and Cmax. The class given is in vivo, human. How it is done: Some of the dosage forms of compositions described herein comprising or prepared from substantially pure (17-β)-3-Oxoandrost-4-en-17-yl tridecanoate were administered to human subjects as a single dose of the esters to subjects. Serial blood samples were drawn at predetermined time (e.g., t=0, 12, 24, etc.) and analyzed for testosterone concentration using a validated HPLC-MS/MS analytical method. The Cmax, Cavg t1-t2, Tmax and AUCt1-t2 are calculated for testosterone in the serum of the subjects. Pharmacokinetic and statistical analyses are performed on the data obtained from the subjects. The pharmacokinetic parameters are defined as follows: • AUCt1-t2: The area under the serum concentration versus time curve, from time t1 (in hours) to time t2 (in hours) measurable concentration of the administered drug, as calculated by the linear trapezoidal method. […] This represents the average serum testosterone level over a period starting from time 0 (zero) hours to […] post-administration of dose. It should also be noted that Cavg t0-t24 is also referred to as simply “Cavg” in this invention. • Cavg t0-t12: The average serum concentration of testosterone obtained by dividing the […] value by 12. This represents the average serum testosterone level over a period starting from time 0 (zero) hours to […] post-administration of dose. • Cavg t12-t24: The average serum concentration of testosterone obtained by dividing the AUCt12-t24 value by 12. This represents the average serum testosterone level over the second half of the 24-hours post-administration of dose period; i.e., from a period starting from time 12 hours to time 24 hours post-administration of dose.

Data set [2] relates to developing oocytes in female mice. The conditions noted are these: cited from earlier work.
The subject of a further data set is male and female mice. To be noted: cited from earlier work.
Setting [3] is: starting 100 (±50) mg T equivalent QD or BID, same formulation.
Where [4] appears, read: starting 300 (±50) mg T equivalent QD, 12-20% API, 55-70% lipophilic additive, 12-20% hydrophilic additive.
Setting [5] is: starting 350 (±100) mg T equivalent BID, same formulation.
The mark [6] stands for this setting: starting 1000 (±200) mg T equivalent QD or BID, same formulation.

As for `CCCCCCCCCCCCC(=O)O[C@H]1CC[C@H]2[C@@H]3CCC4=CC(=O)CC[C@]4(C)[C@H]3CC[C@]12C` [(17-β)-3-Oxoandrost-4-en-17-yl tridecanoate], the “% Responders with Cave t0-t24 (ng/dL) 300-1140” value is listed as 50-65% in data set [1] (setting [3]), 100% in data set [1] (setting [4]), 100% in data set [1] (setting [5]) and 100% in data set [1] (setting [6]). Also, the “% Responders with Cmax (ng/dL) 1800-2500” value is listed as 0-5% in data set [1] (setting [3]), 0-5% in data set [1] (setting [4]), 0-5% in data set [1] (setting [5]) and 20-30% in data set [1] (setting [6]). For the same molecule, the “% Responders with Cmax (ng/dL) >2500” value in data set [1] (setting [3]) is given as 0-1%; in data set [1] (setting [4]), 0-1%; in data set [1] (setting [5]), 0-1%; in data set [1] (setting [6]) it was 60-80%. The “% Responders with Cmax (ng/dL) ≤1500” value is on record as 100% in data set [1] (setting [3]), 100% in data set [1] (setting [4]), 100% in data set [1] (setting [5]) and 0% in data set [1] (setting [6]).
As for `C[C@]12CCC(=O)C=C1CC[C@@H]1[C@@H]2CC[C@]2(C)C(=O)CC[C@@H]12` [androstenedione], the “Effect on developing oocytes” value in data set [2] is “induces abnormalities in morphology and function of developing oocytes”. Also, in the data set with male and female mice, the Carcinogenicity entry is given as “carcinogenic”.
